The source of these data is US20230391792A1, “METHODS AND COMPOSITIONS FOR TARGETED PROTEIN DEGRADATION” (Ranok Therapeutics (Hangzhou) Co. Ltd., priority 2020, published 2023).

Assay [1] deals with T1, HSP90α protein (N-terminal) (Homo sapiens, UniProt P07900).
T1 construct: purchased BPS Bioscience #50298
The assay can be described thus: HSP90α-binding fluorescent polarization (FP) assay, competition with FITC-geldanamycin. The following applies: probe FITC-geldanamycin 5 nM, 25° C. 120 min. As for the experimental part:
(§1) Binding of test compounds to HSP90α protein was measured by fluorescent polarization (FP) using the HSP90α (N-terminal) Assay Kit (BPS Bioscience, #50298), following the manufacturer's instructions, except as noted. Fluorescently labeled HSP90-binding compounds, either the provided FITC-geldanamycin (5 nM final concentration) or RNK04010, a triazolone-based HSP90-binding small molecule labeled with BODIPY through a piperizine-phenyl linker (5 nM final concentration) were employed. A 2.5-fold serial dilution of each test compound ranging from 20 μM to 5.2 nM was assayed for binding to HSP90α. After the final step of adding HSP90α protein to each assay well, plates were mixed by brief shaking, incubated at 25° C. for 120 min for FITC-geldanamycin or 300 min for RNK04010, and fluorescence was measured using a PerkinElmer EnVision Plate Reader.
(§2) HSP90α-binding fluorescent polarization (FP) assays measuring competition with the fluorescently labeled HSP90 binders, FITC-geldanamycin or RNK04010 (BODIPY-labeled), were applied to assess the binding capabilities of CHAMP molecules to HSP90.

The target in assay [2] is T1, HSP90α protein (N-terminal). In words: HSP90α-binding fluorescent polarization (FP) assay, competition with BODIPY-labeled RNK04010. The following applies: probe RNK04010 (BODIPY-labeled) 5 nM, 25° C. 300 min. As for the experimental part:
as §1, §2

For `Cc1sc2c(c1C)C(c1ccc(Cl)cc1)=N[C@@H](CC(=O)NCCOCCN1CCC(Cc3ccc(-n4c(O)nnc4-c4cc(C(C)C)c(O)cc4O)cc3)CC1)c1nnc(C)n1-2` [Compound 9], the IC50 (as a rule, the concentration that gives 50% inhibition) in assay [1] was in the range of 100 to 1000 nM.

For `Cc1sc2c(c1C)C(c1ccc(Cl)cc1)=N[C@@H](CC(=O)NCCOc1ccccc1CN(C)Cc1ccc(-n3c(O)nnc3-c3cc(C(C)C)c(O)cc3O)cc1)c1nnc(C)n1-2` [Compound 14], the IC50 in assay [1] is 100 to 1000 nM.

In assay [1], `Cc1sc2c(c1C)C(c1ccc(Cl)cc1)=N[C@@H](CC(=O)NCCOc1ccc(CN(C)Cc3ccc(-n4c(O)nnc4-c4cc(C(C)C)c(O)cc4O)cc3)cc1)c1nnc(C)n1-2` [Compound 21] showed an IC50 of 100 to 1000 nM.

Regarding `Cc1sc2c(c1C)C(c1ccc(Cl)cc1)=N[C@@H](CC(=O)NCC(=O)NCCOc1ccc(-n3c(O)nnc3-c3cc(C(C)C)c(O)cc3O)cc1)c1nnc(C)n1-2` [Compound 24], the IC50 in assay [1] was in the range of 100 to 1000 nM.

`Cc1sc2c(c1C)C(c1ccc(Cl)cc1)=N[C@@H](CC(=O)N1CCC(CCN3CCN(c4ccc(-n5c(O)nnc5-c5cc(C(C)C)c(O)cc5O)cc4)CC3)CC1)c1nnc(C)n1-2` [Compound 28]: the IC50 in assay [1] was 100 to 1000 nM.

Consider `Cc1sc2c(c1C)C(c1ccc(Cl)cc1)=N[C@@H](CCNCc1ccc(-n3c(O)nnc3-c3cc(C(C)C)c(O)cc3O)cc1)c1nnc(C)n1-2` [Compound 31], for which, in assay [1], the IC50 fell in the range of 100 to 1000 nM.

In the case of `Cc1sc2c(c1C)C(c1ccc(Cl)cc1)=N[C@@H](CC(=O)N[C@@H](C)c1ccc(CN3CCN(Cc4ccc(-n5c(O)nnc5-c5cc(C(C)C)c(O)cc5O)cc4)CC3)cc1)c1nnc(C)n1-2` [Compound 38], in assay [1], the IC50 was 100 to 1000 nM.

`CCc1cc(-c2nnc(O)n2-c2ccc(CN3CCN(CC4CCN(C(=O)C[C@@H]5N=C(c6ccc(Cl)cc6)c6c(sc(C)c6C)-n6c(C)nnc65)CC4)CC3)cc2)c(O)cc1O` [Compound 41] showed an IC50 in assay [1] of less than 100 nM.

Consider `Cc1sc2c(c1C)C(c1ccc(Cl)cc1)=N[C@@H](CC(=O)N[C@@H](C)c1ccc(CN3CCC(Cc4ccc(-n5c(O)nnc5-c5cc(C(C)C)c(O)cc5O)cc4)CC3)cc1)c1nnc(C)n1-2` [Compound 44], for which, in assay [1], the IC50 lay within 100 to 1000 nM.

The compound `CCOc1cc(N2CCC(C(=O)NCCCNC(=O)O[C@H]3CC[C@H](Nc4cc(-n5nc(C(F)(F)F)c6c5CC(C)(C)CC6=O)ccc4C(N)=O)CC3)CC2)ccc1Nc1ncc2c(n1)N(C)c1ccccc1C(=O)N2C` [Compound 150] gave an IC50 in assay [2] greater than 1000 nM.

On to `CCOc1cc(N2CCC(C(=O)NCCOCCNC(=O)O[C@H]3CC[C@H](Cc4cc(-n5nc(C)c6c5CC(C)(C)CC6=O)ccc4C(N)=O)CC3)CC2)ccc1N(CC)c1ncc2c(n1)N(C)c1ccccc1C(=O)N2C` [Compound 151], for which the IC50 in assay [2] was greater than 1000 nM.

In assay [2], `CCOc1cc(N2CCC(C(=O)N3CCN(C(=O)O[C@H]4CC[C@H](Nc5cc(-n6nc(C(F)(F)F)c7c6CC(C)(C)CC7=O)ccc5C(N)=O)CC4)CC3)CC2)ccc1Nc1ncc2c(n1)N(C)c1ccccc1C(=O)N2C` [Compound 152] returned an IC50 greater than 1000 nM.

For `Cc1sc2c(c1C)C(c1ccc(Cl)cc1)=N[C@@H](CC(=O)NCCOCCNC(=O)O[C@H]1CC[C@H](Nc3cc(-n4nc(C(F)(F)F)c5c4CC(C)(C)CC5=O)ccc3C#N)CC1)c1nnc(C)n1-2` [Compound 154], the IC50 in assay [2] is greater than 1000 nM.

Compound `CCOc1cc(N2CCC(C(=O)N3CCC(COc4ccc(Nc5cc(-n6nc(C(F)(F)F)c7c6CC(C)(C)CC7=O)ccc5C(N)=O)cc4)CC3)CC2)ccc1Nc1ncc2c(n1)N(C)c1ccccc1C(=O)N2C` [Compound 159] gave an IC50 in assay [2] greater than 1000 nM.

For the compound `Cc1sc2c(c1C)C(c1ccc(Cl)cc1)=N[C@@H](CC(=O)NCCOCCOCCOCCOc1ccc(Nc3cc(-n4nc(C(F)(F)F)c5c4CC(C)(C)CC5=O)ccc3C(N)=O)cc1)c1nnc(C)n1-2` [Compound 162], the IC50 in assay [2] was greater than 1000 nM.

Compound `Cc1sc2c(c1C)C(c1ccc(Cl)cc1)=N[C@@H](CC(=O)NCCOCCN[C@@H](C)C(=O)N[C@H](C(=O)N1CCC[C@H]1C(=O)Nc1snnc1-c1ccccc1)C1CCCCC1)c1nnc(C)n1-2` [Compound 167] returned an IC50 in assay [2] greater than 1000 nM.
